In data set [1] the test system is Human immunodeficiency virus 1. Briefly: Antiviral activity against HIV1 NL4-3 infected in TZM-bl cells assessed as inhibition of viral replication. It counts as functional, organism-based.
Data set [2] relates to HeLa. The data set is described as follows: Inhibition of HIV1 fusion protein assessed as inhibition of syncytium formation between HeLa cells expressing HIV-1 envelope protein and TZM-bl cells expressing human CD4 receptor. Particulars: Human immunodeficiency virus 1. It counts as cell-based.
For data set [3], the system named is HeLa. The data set is described as follows: Inhibition of HIV1 fusion protein assessed as inhibition of syncytium formation between HeLa cells expressing HIV-1 envelope protein and TZM-bl cells expressing human CXCR4 receptor. In kind it is cell-based. Particulars: Human immunodeficiency virus 1.
Data set [4] has as its system HeLa. The data set is described as follows: Inhibition of HIV1 fusion protein assessed as inhibition of syncytium formation between HeLa cells expressing HIV-1 envelope protein and TZM-bl cells expressing human CCR5 receptor. It counts as cell-based. The settings on record: Human immunodeficiency virus 1.
The subject of data set [5] is Human immunodeficiency virus 1. Briefly: Binding affinity to biotin-labeled HIV1 fusion protein using 5 uM compound immobilized on microtiter plates by ELISA method. (ELISA stands for enzyme-linked immunosorbent assay.)
In data set [6] the test system is Human immunodeficiency virus 1. Briefly: Binding affinity to NBD-labeled HIV1 fusion protein in POPG LUVs at 0.0125 to 0.4 uM using Rho-labeled compound by FRET assay.
In data set [7] the test system is Human immunodeficiency virus 1. Briefly: Binding affinity to HIV1 fusion protein in DPPG lipid monolayers at 5% by compression isotherms analysis.
Data set [8] has as its system Human immunodeficiency virus 1. Briefly: Binding affinity to HIV1 fusion protein in DPPG lipid monolayers assessed as reduction in fusion protein-induced lipid layer phase transition at 5% by fluorescence microscopy.
Data set [9] concerns Human immunodeficiency virus 1. The data set is described as follows: Inhibition of fusogenic capacity of HIV1 fusion protein in rabbit RBCs assessed as reduction in fusion protein-induced hemolsysis at 1 to 100 uM after 60 mins.
Data set [10] is described as follows: Toxicity against rabbit RBCs assessed as induction of hemolysis after 60 mins. In kind it is cell-based, Oryctolagus cuniculus. The settings on record: erythrocyte, 1 h.
Data set [11] has as its system Human immunodeficiency virus 1. Briefly: Binding affinity to HIV1 fusion protein in POPG vesicles assessed as induction of conformational changes infusion secondary structure by CD spectroscopy.
Data set [12] relates to Human immunodeficiency virus 1. Briefly: Binding affinity to HIV1 fusion protein in PLGA nanoparticles assessed as protein-protein interactions by STD-NMR spectroscopy.
Data set [13] concerns Human immunodeficiency virus 1. Briefly: Binding affinity to [W8]HIV1 fusion protein assessed as mole fraction partition coefficients in POPG liposomes by fluorescence assay. Particulars: Microsome.
The test system of data set [14] is Human immunodeficiency virus 1. The data set is described as follows: Inhibition of fusogenic capacity of HIV1 fusion protein in POPG LUVs assessed as reduction in fusion protein-induced vesicular permeabilization process at compound/fusion protein ratio of 20 by ANTS/DPX assay.
In data set [15] the test system is Human immunodeficiency virus 1. Briefly: Inhibition of fusogenic capacity of HIV1 fusion protein in rabbit RBCs assessed as reduction in fusion protein-induced hemolsysis at 10 to 1000 uM after 60 mins.
Data set [16] has as its system Human immunodeficiency virus 1. Briefly: Binding affinity to biotin-labeled HIV1 fusion protein using compound immobilized on microtiter plates by ELISA method.
The test system of data set [17] is Human immunodeficiency virus 1. The data set is described as follows: Inhibition of biotin-labeled HIV1 fusion protein binding to immobilized E1P8cyc peptide by ELISA method.
For another data set, the system named is Murine leukemia virus. Briefly: Binding affinity to NBD-labeled MLV fusion protein in POPG LUVs at 0.0125 to 0.4 uM using Rho-labeled compound by FRET assay.
Data set [18] has as its target T1, Melittin (Apis mellifera) (UniProt P01501).
T1 sequence (whole entry): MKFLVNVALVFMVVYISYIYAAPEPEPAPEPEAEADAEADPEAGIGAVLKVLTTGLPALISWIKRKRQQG
Briefly: Binding affinity to bee venom melittin in POPG LUVs assessed as reduction in melittin-induced vesicular permeabilization process at compound/melittin ratio of 10 by ANTS/DPX assay.

In data set [19] the test system is Human immunodeficiency virus 1. Briefly: Antiviral activity against HIV1 NL4-3 in cell based assay. It counts as functional, organism-based. The settings on record: Human immunodeficiency virus 1, NL4-3.

Active and inactive are the calls of the source. The rule behind the calls is not given here. Peptide text beside a SMILES is read from it.

This note sets out measurements from ChEMBL document CHEMBL3352681, “A cyclic GB virus C derived peptide with anti-HIV-1 activity targets the fusion peptide of HIV-1” (Eur J Med Chem, 2014).

The term IC50 denotes the concentration at which inhibition is half-maximal. The low end stands for higher potency, the high end for lower potency.

With H-LEAIPCSIPPEFLFGKPFVF-OH, the outcome in data set [1], in data set [5], in [6], in data set [7], in data set [8] and in data set [11] was Active. For the same compound, the inhibition result (in the data set with HeLa [2]; in the data set on HeLa [3]; with HeLa [4]; in [9]) was “Active” each time. Also, the Activity result in [10] is reported as “Non-toxic”. Further, the outcome in [12] was inactive.

On to `CC[C@H](C)[C@H](NC(=O)[C@H](CC(=O)O)NC(=O)[C@H](CCC(=O)O)NC(=O)[C@@H]1CCCN1C(=O)[C@H](C)N)C(=O)NCC(=O)N[C@@H](Cc1ccccc1)C(=O)N[C@@H](CS)C(=O)N[C@@H](CC(C)C)C(=O)N[C@@H](CCC(=O)O)C(=O)NCC(=O)NCC(=O)N[C@@H](CS)C(=O)N[C@@H](CC(C)C)C(=O)N[C@H](C(=O)N[C@@H](C)C(=O)N[C@@H](CC(C)C)C(=O)NCC(=O)O)C(C)C` (H-APEDIGFCLEGGCLVALG-OH), for which the result in [5] and in [12] was inactive. Further, the K (mole fraction) in data set [13] is 730000. Also, the inhibition result in data set [14] and in data set [15] was “Active” throughout. Further, the outcome in data set [11] was Active.

As to `CC[C@H](C)[C@H](NC(=O)[C@H](CC(=O)O)NC(=O)[C@H](CCC(=O)O)NC(=O)[C@@H]1CCCN1C(=O)[C@H](C)N)C(=O)NCC(=O)N[C@@H](Cc1ccccc1)C(=O)N[C@H]1CSSC[C@@H](C(=O)N[C@@H](CC(C)C)C(=O)N[C@H](C(=O)N[C@@H](C)C(=O)N[C@@H](CC(C)C)C(=O)NCC(=O)O)C(C)C)NC(=O)CNC(=O)CNC(=O)[C@H](CCC(=O)O)NC(=O)[C@H](CC(C)C)NC1=O` (HELM PEPTIDE1{A.P.E.D.I.G.F.C.L.E.G.G.C.L.V.A.L.G}$PEPTIDE1,PEPTIDE1,8:R3-13:R3$$$V2.0), the outcome in data set [5], in data set [17], in data set [6], in data set [7], in [8] and in data set [11] was Active. For the same compound, the outcome in [12] was Active. For the same compound, the Activity result in data set [16] was “Dose-dependent effect”; in [10], “Non-toxic”. Moreover, the K (mole fraction) in data set [13] was found to be 580000. For the same compound, the outcome (in the data set on Murine leukemia virus; in data set [18]) was inactive. Moreover, the Imax in data set [14] was determined as 40%. The inhibition result in data set [9] is “Dose-dependent effect”. This compound returned an IC50 in [19] of 7.8 µM.

On to H-SGVLTVGVALTRRVYPVP-OH, for which the outcome in data set [1], in data set [5], in data set [17] and in data set [11] was inactive. Besides, the inhibition result (with HeLa [2]; in the data set with HeLa [3]; in the data set with HeLa [4]; in [14]; in data set [15]) was “inactive” each time.
